In patent publication US8106004B2, “Methods of inhibiting tumor cell aggressiveness using the microenvironment of human embryonic stem cells” (Children's Memorial Hospital, priority 2006, dated 2012):

Key:
[1] = system: MDA-MB-231 breast carcinoma cells; test: In vivo tumor cell proliferation-to-apoptosis ratio (Ki67/TUNEL), MDA-MB-231 derived tumors; conditions: MDA-MB-231 treated before injection into mouse
Text: (§1) (A) In vivo tumor formation in a mouse injected with MDA-MB-231 cells pre-exposed for 3 days to either a control matrix (Matrigel) or a matrix conditioned by hESCs (H9 CMTX) (n=10) (B) C81-61 cells, transfected with either an empty vector or a Nodal expression construct (n=5), and (C) MDA-MB-231 cells treated with either MO^Control or MO^Nodal (n=10). […] (D) The ratio of tumor cell proliferation to apoptosis for C8161 and MDA-MB-231 derived tumors, determined by immunohistochemical staining for Ki67 and terminal deoxynucleotidyl transferase biotin-dUTP nick-end labeling (TUNEL). Prior to injection into a mouse, C8161 and MDA-MB-231 cells were cultured for 3 days on control or hESC conditioned (H9 CMTX) matrices, or treated with MO^Nodal to knock down Nodal expression. […] (E) Immunohistochemical analysis of Ki67 expression (red/brown) and TUNEL staining in orthotopic melanoma (C8161) and breast carcinoma (MDA-MB-231) tumors. […] Proliferation is indicated by Ki67 staining and apoptotic nuclei were detected with confocal microscopy as red staining localized to the nuclei of apoptotic C8161 or MDA-MB-231 cells. […]
(§2) In order to establish a mechanism by which exposure to the hESC microenvironment abrogates tumorigenicity, the effects of this treatment on the in vivo tumor cell proliferation-to-apoptosis ratio were analyzed. […]

[2] = system: MDA-MB-231 breast carcinoma cells; test: In vivo tumor formation, orthotopic mouse model, MDA-MB-231 breast carcinoma cells; conditions: 500,000 MDA-MB-231 cells treated with Morpholino before injection
Text: (A) In vivo tumor formation in a mouse injected with MDA-MB-231 cells pre-exposed for 3 days to either a control matrix (Matrigel) or a matrix conditioned by hESCs (H9 CMTX) (n=10) (B) C81-61 cells, transfected with either an empty vector or a Nodal expression construct (n=5), and (C) MDA-MB-231 cells treated with either MO^Control or MO^Nodal (n=10). […] (D) The ratio of tumor cell proliferation to apoptosis for C8161 and MDA-MB-231 derived tumors, determined by immunohistochemical staining for Ki67 and terminal deoxynucleotidyl transferase biotin-dUTP nick-end labeling (TUNEL). Prior to injection into a mouse, C8161 and MDA-MB-231 cells were cultured for 3 days on control or hESC conditioned (H9 CMTX) matrices, or treated with MO^Nodal to knock down Nodal expression. […] Proliferation is indicated by Ki67 staining and apoptotic nuclei were detected with confocal microscopy as red staining localized to the nuclei of apoptotic C8161 or MDA-MB-231 cells. […]
The effects of the hESC microenvironment on the in vivo tumorigenicity of melanoma and breast carcinoma cells were examined using orthotopic mouse models. […] The […] C81-61 melanoma cell line was unable to form palpable tumors when 500,000 cells were injected, and using gross observation and histology 5.5 weeks after inoculation, these tumor cells could not be detected at the site of injection. […]

C8161 melanoma cells = test: In vivo tumor cell proliferation-to-apoptosis ratio (Ki67/TUNEL), C8161 derived tumors; conditions: C8161 treated before injection into mouse
Text: as §1, §2

Nodal = test: Immunohistochemical analysis of Nodal staining in orthotopic C8161 tumors; assay type: in vivo, mouse; conditions: tumors from C8161 treated with anti-Nodal Morpholino, day 17

MO^Nodal: FITC-conjugated anti-sense Morpholino to Nodal, 5′-AAGCAGCACCTCCAGCCCTTATATC-3′ [SEQ ID NO: 20] (all phosphorodiamidate morpholino (PMO); FITC conjugated, position not given here)
ratio of proliferation to apoptosis [1]: decreased
tumorigenicity [2]: significant reduction
ratio of proliferation to apoptosis (C8161 melanoma cells): decreased
Nodal expression in tumors (IHC) (Nodal): started to regain Nodal expression
